Data reported in patent publication US20260008746A1, “CATIONIC LIPID COMPOUND WITH HIGH EFFICIENCY, LOW TOXICITY AND STABLE EXPRESSION, AND COMPOSITION COMPRISNG SAME” (HANGZHOU TIANLONG PHARMACEUTICAL CO., LTD, priority 2023, published 2026).
Where “and” joins values, the source holds several entries; their conditions need not be identical. Identical values can stand only once.

Assays:
[1] = Determination of particle size and polydispersity index (PDI) of lipid nanoparticles by dynamic light scattering; assay type: physicochemical; settings: LNP formulation of named cationic lipid/DSPC/cholesterol/DMG-PEG2000 49:10:39.5:1.5; for Particle size (nm): 90° scattering angle, 25° C
Experimental: The cationic lipids listed in Table 1 were dissolved in ethanol with DSPC (AVT (Shanghai) Pharmaceutical Technology Co., Ltd.), cholesterol (AVT (Shanghai) Pharmaceutical Technology Co., Ltd.) and DMG-PEG2000 according to a molar ratio of 49:10:39.5:1.5, respectively, to prepare lipid solution in ethanol. The lipid solution in ethanol was quickly added to citrate buffer (pH=4 to 5) by ethanol injection method, and vortexed for 30 s for later use. eGFP-mRNA (from Shanghai Biohub International Trade Co., Ltd) or Fluc-mRNA (from Shanghai Biohub International Trade Co., Ltd) was diluted in citrate buffer (pH=4 to 5) to give an aqueous mRNA solution. A certain volume of liposome solution and mRNA aqueous solution were used to prepare liposomes at a weight ratio of total lipids to mRNA of 15:1. The mixtures were sonicated at 25° C. for 15 min (with an ultrasonic frequency of 40 kHz and an ultrasonic power of 800 W). The resulting liposomes were diluted to 10 times volume with PBS, and then ultrafiltered with a 300 KDa ultrafiltration tube to remove ethanol. Then the volume was fixed to a certain volume with PBS to give an LNP formulation encapsulating eGFP-mRNA or Fluc-mRNA using cationic lipid/DSPC/cholesterol/DMG-PEG2000 (49:10:39.5:1.5 in molar percentage).
The particle size and polydispersity index (PDI) were determined by dynamic light scattering using Malvern laser particle size analyzer.
10 μL of the liposome solution was weighed, diluted to 1 mL with RNase-free deionized water, and added to the sample pool. Each sample was measured in triplicate. The measurement conditions were: 90° scattering angle, and 25° C.

[2] = tested on: BALB/C mice; test: In vivo imaging of Fluc-mRNA expression in mice delivered by LNP formulations; settings: for average radiation intensity, 6 h / average radiation intensity, 24 h / average radiation intensity, 48 h / average radiation intensity, 7 d: LNP containing 10 pg Fluc-mRNA, intramuscular, female BALB/C mice
Procedure, shortened: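 Female BALB/C mice (4-6 weeks, 17-19 g) received LNP carrying […] Fluc-mRNA intramuscularly. Substrate was given intraperitoneally at 6 h, 24 h, 48 h and 7 d, and average radiance was imaged by IVIS 5 min later.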

[3] = tested on: 293T cells; test: Cell survival rate determination (CCK-8); assay type: cell-based; settings: for Cell survival rate (%): LNP formulation containing 1.5 μg Fluc-mRNA, 24 hours, CCK-8, absorbance at 450 nm; for cell survival rate lower than that of YK-101: cell survival rate of YK-101 minus that of named substance; for cell survival rate lower than that of YK-107: cell survival rate of YK-107 minus that of named substance; for cell survival rate lower than that of YK-108: cell survival rate of YK-108 minus that of named substance
Procedure, shortened: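 293T cells were seeded overnight at 10,000 cells/well in 96-well plates, then exposed for 24 h to LNP containing 1.5 μg Fluc-mRNA (cationic:neutral:structural:polymer-conjugated lipid, 49:10:39.5:1.5 molar) or to Lipofectamine 3000. Viability was read by CCK-8, 1 h incubation, absorbance 450 nm.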

[4] = tested on: 293T cells; test: Fluorescent detection of Fluc-mRNA (cell transfection efficiency of LNP formulations); assay type: cell-based; settings: for Relative light unit (RLU): LNP formulation containing 0.3 μg Fluc-mRNA, 96-well plate, 24 hours; for Multiples (YK-101): RLU of YK-101 / RLU of named substance; for Multiples (YK-107): RLU of YK-107 / RLU of named substance; for Multiples (YK-108): RLU of YK-108 / RLU of named substance; for Ratio relative to SM-102: RLU of named substance / RLU of SM-102; for difference from SM-102 in Fluc-mRNA fluorescence (GraphPad Prism analysis): statistical comparison with SM-102
Procedure, shortened: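 293T cells seeded at 10,000 per well, cultured overnight, then given LNP carrying 0.3 μg Fluc-mRNA (cationic:neutral:structured:PEG-lipid 49:10:39.5:1.5 molar). Incubated 24 h. Luciferase signal read with kit reagent on an IVIS imaging system.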

[5] = highest multiple, time point not stated

PDI(%) [1] [%]	Particle size (nm) [1] [nm]	Structure (SMILES)	average radiation intensity of YK-101, times that of named substance ([2]; 6 h) [times]	average radiation intensity of YK-107, times that of named substance ([2]; 6 h) [times]	average radiation intensity of YK-108, times that of named substance ([2]; 6 h) [times]	average radiation intensity of YK-101, times that of named substance ([2]; 24 h) [times]	average radiation intensity of YK-107, times that of named substance ([2]; 24 h) [times]	average radiation intensity of YK-108, times that of named substance ([2]; 24 h) [times]	average radiation intensity of YK-101, times that of named substance ([2]; 48 h) [times]	average radiation intensity of YK-107, times that of named substance ([2]; 48 h) [times]	average radiation intensity of YK-108, times that of named substance ([2]; 48 h) [times]	average radiation intensity of YK-101, times that of named substance ([2]; 7 d) [times]	average radiation intensity of YK-107, times that of named substance ([2]; 7 d) [times]	average radiation intensity of YK-108, times that of named substance ([2]; 7 d) [times]	average radiation intensity, 6 h ([2]; 6 h)	average radiation intensity, 24 h ([2]; 24 h)	average radiation intensity, 48 h ([2]; 48 h)	average radiation intensity, 7 d ([2]; 7 d)	Cell survival rate (%) [3] [%]	cell survival rate lower than that of YK-101 [3]	further results
14.4	140	CCCCCCCCCC(=O)OCCCCN(CCO)CCCCCC(=O)OCC(CCCCCCCC)CCCCCCCC [YK-106]	2.2	2.3	2.9	10.0	12.3	13.3	5.6	6.9	7.0	1.7	1.9	2.0	683840	105776	32940	7052	59.59	30.53%	cell survival rate lower than that of YK-107 [3]: 30.86%; cell survival rate lower than that of YK-108 [3]: 30.27%; Relative light unit (RLU) [4]: 1628063 RLU; Multiples (YK-101) [4]: 12.49; Multiples (YK-107) [4]: 13.73; Multiples (YK-108) [4]: 15.15; Ratio relative to SM-102 [4]: 1.06; difference from SM-102 in Fluc-mRNA fluorescence (GraphPad Prism analysis) [4]: no significant difference
15.1	260	CCCCCCCCCCOC(=O)CCCN(CCCCCC(=O)OCC(CCCCCCCC)CCCCCCCC)CCOC(=O)CCCN(C)C [YK-126]	9.6	10.3	13.0	50.4	62.2	67.1	27.9	34.0	34.6	13.9	15.2	16.2	155160	20939	6656	877	25.03	60% and 65.09%	expression amount of mRNA in mice of YK-101, times that of named substance [2, 5]: 50 times; expression amount of mRNA in mice of YK-107, times that of named substance [2, 5]: 62 times; cell survival rate lower than that of YK-122 [3]: 54.12%; cell survival rate lower than that of YK-124 [3]: 52.53%; cell survival rate lower than that of YK-107 [3]: 60% and 65.42%; cell survival rate lower than that of YK-108 [3]: 60% and 64.83%; cell transfection activity, times that of YK-125 [4]: 1.3 times; Relative light unit (RLU) [4]: 219983 RLU; Multiples (YK-101) [4]: 92.44; Multiples (YK-107) [4]: 101.65; Multiples (YK-108) [4]: 112.10; fluorescence absorption value, times that of HHMA ([4]; RLU of named substance / RLU of HHMA): 0.11 times; fluorescence absorption value, times that of Lipofectamine 3000 ([4]; RLU of named substance / RLU of Lipofectamine 3000): 0.20 times; Ratio relative to SM-102 [4]: 0.14; Fluc-mRNA expression signal intensity, times that of compound 21 ([4]; RLU of named substance / RLU of compound 21): 0.16 times; fluorescence absorption value, times that of compound 23 ([4]; RLU of named substance / RLU of compound 23): 0.17 times; difference from SM-102 in Fluc-mRNA fluorescence (GraphPad Prism analysis) [4]: significant difference
